Source: patent publication US11447533B2, “Antimicrobial and anticancer peptides and conjugates and compositions, methods, articles and kits relating thereto” (George Mason Research Foundation, Inc., priority 2018, dated 2022)
Entries after “also recorded” stand apart in the source; their conditions may differ.

Tests used:
[1] = Endotoxin binding: competitive displacement of BODIPY TR-Cadaverine from LPS; parameters: species or system Escherichia coli; settings: 5 μM peptide; for LPS binding (BC displacement), in words: 10 μM BC, 10 μg/mL LPS, low ionic-strength 10 mM Na-PO4; for increase in affinity for LPS compared to the peptide lacking the hydrophobic tail: vs ATRA1 / ATRA1-R3W2
Method: FIGS. 2A-2B are graphs showing endotoxin binding. The figures depict the competitive displacement of BC from LPS/LTA by the peptides. 5 μM of each peptide was incubated with 10 μM BC and 10 μg/mL LPS from E. coli (0111:B4) or LTA from S. aureus. Fluorescence intensity was measured at excitation=580 nm and emission=620 nm. 10 μM BC without endotoxin was used as 100% displacement while 10 μM BC with 10 μg/mL LPS/LTA without any peptide as 0% displacement and the % displacement of BC by each peptide was calculated accordingly. […] had been used as a positive control. The horizontal dotted line coincides with the % displacement of BC by ATRA1 on the y-axis.
FIGS. 6A-6B are graphs showing endotoxin (LPS (FIG. 6A) and LTA (FIG. 6B)) binding. Competitive displacement of BC from LPS/LTA. In each case, 5 μM peptide was incubated with 10 μM BC and 10 μg/mL LPS from E. coli (0111:B4) or LTA from S. aureus. Fluorescence intensity was measured using excitation=580 nm and emission=620 nm. As a positive control 10 μM BC without endotoxin was used as a reference for 100% displacement while 10 μM BC with 10 μg/mL LPS/LTA without any peptide as a negative control and a reference for 0% displacement. These controls were used to calculate % BC displacement for each peptide.
Endotoxin Binding. The binding of endotoxin (LPS/LTA) was evaluated using a fluorogenic conjugateBODIPY TR-Cadaverine (BC). BC binds endotoxin loses its fluorescence. The peptide competitively displaces BC from endotoxin and the fluorescence is reestablished. Competitive inhibition of endotoxin-BC binding was utilized due to presence of peptides already in complexion with endotoxin. 25 μL of 20 μM of peptides in 10 mM Na—PO4 buffer were incubated with 25 μL of LPS (40 μg/mL) or LTA (40 μg/mL) for 15 min and then added with 50 μL of BC (20 uM). Peptides bind to LPS or LTA and competitively prevents BC bind to the endotoxin. BC loses its fluorescence on binding to endotoxin. The fluorescence intensity of the unbound BC was measured at excitation=580 nm and emission=620 nm.
BC contains two functional moieties: BODIPY (boron-dipyrromethene) and cadaverine connected via a carboxamide. BODIPY is the fluorophore of BC and fluoresces in the free state in solution but loses fluorescence when bound to LPS/LTA. The competitive displacement of BC from LPS/LTA by AMPs and thus regeneration of the fluorescence has frequently been used to estimate the binding strength of AMPs with LPS/LTA. In the present studies, 5 μM of each peptide was used to displace BC from LPS/LTA. […] Such observation contradicts the initial assumption that substitution of Lys with arginine would result in increased efficiency of LPS binding. However, with sequential substitutions of Lys with arginine, starting with ATRA1-AR, peptide variants show increased LPS binding with each additional arginine substitution. In terms of LPS binding: ATRA1-AR<ATRA1-AR2<ATRA1-AR3. In ATRA1-R3, the lysine residues at 9th, 5th and 1st positions of ATRA1 were substituted with arginine. In ATRA1-R6 all of the lysine residues were replaced with arginine.

[2] = tested on: E. coli ML35p outer membrane; assay: Outer membrane disruption (β-lactamase leakage, nitrocefin); type: cell-based, Escherichia coli; settings: for outer membrane disruption (β-lactamase activity) relative to HCMAB / time to reach maximum signal for nitrocefin hydrolysis: DPBS
Method: Interactions with Bacterial Membranes. Interaction of the peptides with bacterial membranes in different phosphate buffers were evaluated using E. coli ML35p, constructed in our laboratory. At first, competent cells of E. coli ML35 were produced by conventional competent cell preparation method, then transformed with pBR322 plasmid. Transformed colonies were selected after growing on Luria-agar containing 50 μg/mL ampicillin. A single transformed colony was grown in presence of ampicillin first in Luria broth and then in MHBII and stored as 20% glycerol stock at −80° C. This frozen stock, on the day of the experiment, was thawed and grown in MHBII containing ampicillin up to OD600 nm=0.8-0.9, washed with PBS and then suspended in the respective buffer up to the required OD600 nm for use.
Membrane Disruptions. The outer and the inner membrane disruptions by the peptides were evaluated by incubating bacterial suspension with peptides and then measuring the activity of enzymes leaked out of the cells. 100 μL of 10× concentration of peptide in water was incubated with 900 μL bacterial suspension (OD600 nm˜0.1) in respective buffer for 3 hours at room temperature with gentle rotation. Then the cells and debris were separated by centrifugation (10000 r.p.m. for 30 mins) and the supernatant was collected and tested for activity of enzymes that had leaked out of the bacterial cells. HCMAB was used as a positive control to cause 100% membrane disruption and water as a negative causing 0% disruption.
The outer membrane disruption was tested by using the activity of beta-lactamase present in the periplasmic space of E. coli ML35p. Peptides when disrupt the outer membrane enough to cause beta-lactamase to come out, the degree of disruption can be measured by the virtue of the kinetics of the enzyme and using a chromogenic cephalosporin substrate called nitrocefin. β-lactamase mediated hydrolyzed product of nitrocefin has an absorbance αmax=486 nm. Supernatant collected from the incubation of peptide with bacteria was added with nitrocefin solution in DPBS and incubated at 35° C. and continuous absorbance readings. The slope of the linear section of the absorbance curve (absorbance vs time), was used as a measure of membrane disruption and the % Disruption was calculated as: Equation 7: […]
Some of the ATRA1-variants were further tested for their ability to disrupt outer and inner membranes to form pores or disruptions sufficiently large so as to allow enzymes to leak out of their cellular compartments (cytoplasm or periplasmic space). For this purpose, two reporter molecules were used with one being the substrate of a cytoplasmic enzyme and the other was a substrate for an enzyme residing in the periplasmic space. One of the reporters, nitrocefin was the substrate for β-lactamase, which is present in the bacterial periplasm, whereas the other molecule, ONPG, was the substrate for β-galactosidase, which resides in the cytoplasm of E. coli ML35p strain. […] Similarly, β-galactosidase activity in the supernatants is evidence of inner membrane disruption and possible pore formation. When the aforesaid supernatants were tested for nitrocefin and ONPG hydrolysis, the corresponding absorbance increased with time (data not shown) indicating β-lactamase and β-galactosidase activity, respectively, and thus disruption of both the inner and outer membranes. The slopes of the increase in absorbance as a function of time provides the rate of enzyme activity. The enzyme activities in supernatants collected after incubation of bacteria with the quaternary ammonium surfactant, hexadecyltrimethylammonium bromide (HCMAB) was used as an internal reference for 100% membrane disruption. Enzyme activity for supernatants collected for cells incubated in the absence of peptide provided a reference for 0% membrane disruption. Bee venom peptide melittin was used as a positive control. […]

Sequence	LPS binding (BC displacement), in words [1]	outer membrane disruption (β-lactamase activity) relative to HCMAB ([2]; HCMAB = 100%)	time to reach maximum signal for nitrocefin hydrolysis [2]	also measured
KRAKKFFKKLK (SEQ ID NO: 4) [ATRA1-A]	decreased LPS binding relative to ATRA1			
KRAKKFFKRLK (SEQ ID NO: 6) [ATRA1-AR]	lowest LPS binding of all of the peptides tested			
KRFKKFFKKLK (SEQ ID NO: 2) [ATRA1, first 11 residues of NA-CATH]				outer membrane disruption relative to HCMAB ([2]; 10 mM phosphate buffer, HCMAB = 100%): higher degree of disruption than ATRA1-R3W2
KRFKKFFKKLKGGVIGVTFPF (SEQ ID NO: 38) [ATRA1-HYD, ATRA1 with hydrophobic tail of NA-CATH joined at the C-terminus by a short -GG- segment]				increase in affinity for LPS compared to the peptide lacking the hydrophobic tail [1]: ~2 fold
KRFKKFFKKLKNSVKKRAKKFFKKPK (SEQ ID NO: 53) [NA-CATH26, first 26 residues of NA-CATH]		significantly lower degrees of β-lactamase leakage		decrease in affinity for LPS relative to NA-CATH ([1]; deletion of hydrophobic tail): ~30%
KRWKKWWKKWK (SEQ ID NO: 14) [ATRA1-W4]	higher efficacy to bind LPS than the parent ATRA1		approximately 30 mins	
RRFKRFFKRLK (SEQ ID NO: 9) [ATRA1-R3]	higher LPS binding than ATRA1	in between those observed for ATRA1 and ATRA1-F		
RRFRRFFRRLR (SEQ ID NO: 10) [ATRA1-R6]	bound LPS more effectively than ATRA1-R3		approximately 30 mins	
RRWKRFFKRWK (SEQ ID NO: 15) [ATRA1-R3W2]	more effective in LPS binding than either of ATRA1-R3 and ATRA1-W2; also recorded: binds LPS marginally greater than ATRA1	Higher outer membrane disruption	approximately 30 mins	outer membrane disruption (β-lactamase activity) relative to HCMAB ([2]; HCMAB = 100%, listed as ATRA-R3W2): approximately 4%
RRWKRFFKRWKGGVIGVTFPF (SEQ ID NO: 50) [ATRA1-R3W2-HYD, ATRA1-R3W2 with hydrophobic tail of NA-CATH joined by -GG-]	binds LPS with similar affinity as ATRA1-HYD	160%		increase in affinity for LPS compared to the peptide lacking the hydrophobic tail [1]: ~2 fold
